{"source": "patent US8461183B2", "about": "“PPAR agonist compounds, preparation and uses” (Genfit, priority 2008, dated 2013)", "assay_type_in_all_cases": "cell-based", "key": {"[1]": {"target": "T1, hPPARα (Homo sapiens, UniProt Q07869)", "T1 construct": "corresponding to the DEF domains (structural elements of the promoter of the PPARs: D=hinge, EF=ligand fixation domain and AF2 fixation site); expressed in transfected cells; host or cells: COS-7 (monkey kidney fibroblasts)", "T1 sequence (Q07869 239-466 limits assumed)": "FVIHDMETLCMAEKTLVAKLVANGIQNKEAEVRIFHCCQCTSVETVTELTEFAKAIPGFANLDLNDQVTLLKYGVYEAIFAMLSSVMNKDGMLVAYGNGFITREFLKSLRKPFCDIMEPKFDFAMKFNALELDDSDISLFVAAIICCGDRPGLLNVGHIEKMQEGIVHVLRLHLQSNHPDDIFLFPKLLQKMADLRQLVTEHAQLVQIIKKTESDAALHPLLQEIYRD", "test": "Gal4-hPPARα chimera transactivation (luciferase) in COS-7 cells", "settings": "COS-7 cells, Gal4-hPPARα, 24 hours; for EC50: luciferase, read-out: PPARα EC50; for Emax: read-out: PPARα TOP % (maximum activation)", "protocol": "(§1) Activation of PPARs is evaluated in vitro on a line of monkey kidney fibroblasts (COS-7) by measuring the transcriptional activity of chimeras consisting of the DNA binding domain of Gal4 transcription factor of yeast and of the ligand binding domain of the various PPARs of human origin (hPPAR).\n(§2) The COS-7 cells are from ATCC and are cultivated in DMEM medium supplemented with 10% (vol/vol) of fetal calf serum, 1% of penicillin/streptomycin (Biochrom, AG), 1% of amino acids (Gibco) and 1% of sodium pyruvate (Gibco). The cells are incubated at 37° C. in a humid atmosphere containing 5% CO2.\n(§3) The plasmids Gal4(RE)_TkpGL3, pGal4-hPPARα, pGal4-hPPARγ, pGal4-hPPARδ and pGal4-φ are described in the literature (Raspe E et al., 1999). The constructs pGal4-hPPARα, pGal4-hPPARγ and pGal4-hPPARδ were obtained by cloning, into the pGal4-φ vector, DNA fragments amplified by PCR corresponding to the DEF domains (structural elements of the promoter of the PPARs: D=hinge, EF=ligand fixation domain and AF2 fixation site) of the human nuclear receptors PPAα, PPARγ and PPARδ.\n(§4) The adherent COS-7 cells are transfected with 40 μg of DNA per 225 cm^2 flask, with a pGal4-hPPAR/Gal4(RE)_TkpGL3 ratio of 1/10, in the presence of 10% of fetal calf serum. The cells are then detached and seeded in the absence of serum in 384-well plates (2×10^4 cells/well) then incubated for 4 hours at 37° C. The compounds are then diluted in a 96-well plate and then transferred to the 384-well plate. Activation with the test compounds is effected for a further 24 hours at 37° C. in the presence of 1% of synthetic serum Ultroser™ (Biosepra). These last 2 stages are automated by means of a Genesis Freedom 200™ station (Tecan). At the end of the experiment, the cells are lysed and the luciferase activity is determined using the Steady-Lite™ HTS (Perkin Elmer) according to the supplier's recommendations.\nThe test data are summarized in Table 8-1 below, which presents, for each compound, the values of maximum activation (TOP %) and the EC50 values measured for each isoform of PPAR. The values of maximum activation are expressed in percentages relative to the maximum activations obtained with reference agonists: fenofibric acid for PPARα, rosiglitazone for PPARγ and 2-methyl-4-((4-methyl-2-(4-trifluoromethylphenyl)-1,3-thiazol-5-yl)-methylsulfanyl)phenoxyacetic acid (also called GW501516) for PPARδ."}, "[2]": {"target": "T2, hPPARγ (Homo sapiens, UniProt P37231)", "T2 construct": "corresponding to the DEF domains (structural elements of the promoter of the PPARs: D=hinge, EF=ligand fixation domain and AF2 fixation site); expressed in transfected cells; host or cells: COS-7 (monkey kidney fibroblasts)", "T2 sequence (P37231 238-503 limits assumed)": "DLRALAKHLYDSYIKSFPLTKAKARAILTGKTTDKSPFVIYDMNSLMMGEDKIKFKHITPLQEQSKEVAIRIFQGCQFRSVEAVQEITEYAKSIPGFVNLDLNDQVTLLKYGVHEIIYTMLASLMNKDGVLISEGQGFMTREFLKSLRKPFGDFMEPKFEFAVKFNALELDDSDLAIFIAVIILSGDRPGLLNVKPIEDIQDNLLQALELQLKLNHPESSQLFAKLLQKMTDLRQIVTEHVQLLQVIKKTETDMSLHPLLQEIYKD", "test": "Gal4-hPPARγ chimera transactivation (luciferase) in COS-7 cells", "settings": "24 hours; for EC50: luciferase, read-out: PPARγ EC50; for Emax: relative to maximum activation obtained with rosiglitazone, read-out: PPARγ TOP % (maximum activation)", "protocol": "as §1, §2, §3, §4\n(§5) The test data are summarized in Table 8-1 below, which presents, for each compound, the values of maximum activation (TOP %) and the EC50 values measured for each isoform of PPAR."}, "[3]": {"target": "T3, hPPARδ (Homo sapiens, UniProt Q03181)", "T3 construct": "corresponding to the DEF domains (structural elements of the promoter of the PPARs: D=hinge, EF=ligand fixation domain and AF2 fixation site); expressed in transfected cells; host or cells: COS-7 (monkey kidney fibroblasts)", "T3 sequence (Q03181 211-439 limits assumed)": "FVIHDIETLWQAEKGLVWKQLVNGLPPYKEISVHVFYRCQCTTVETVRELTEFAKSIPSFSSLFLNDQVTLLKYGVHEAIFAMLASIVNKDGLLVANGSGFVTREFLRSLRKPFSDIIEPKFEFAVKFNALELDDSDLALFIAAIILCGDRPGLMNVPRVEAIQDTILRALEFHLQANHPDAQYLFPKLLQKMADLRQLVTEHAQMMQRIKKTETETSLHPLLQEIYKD", "test": "Gal4-hPPARδ chimera transactivation (luciferase) in COS-7 cells", "settings": "COS-7 cells, Gal4-hPPARδ, 24 hours; for EC50: luciferase, read-out: PPARδ EC50; for Emax: relative to maximum activation obtained with GW501516, read-out: PPARδ TOP % (maximum activation)", "protocol": "as §1, §2, §3, §4, §5"}, "[4]": {"settings": "relative to maximum activation obtained with fenofibric acid"}}, "data": [{"compound": "O=C(O)COc1ccc(OCc2ccc(-c3ccccc3)nc2Sc2ccccc2)cc1", "note": "[Cpd 25, 2-(4-((2-phenylthio-6-(phenyl)pyridin-3-yl)methoxy)phenoxy)ethanoic acid]", "values": [{"measurement": "EC50", "setting": "[1]", "result": 6.96, "unit": "µM"}, {"measurement": "Emax", "setting": "[1]; [4]", "result": 53.9, "unit": "%"}, {"measurement": "EC50", "setting": "[2]", "result": 8.29, "unit": "µM"}, {"measurement": "Emax", "setting": "[2]", "result": 38.3, "unit": "%"}, {"measurement": "EC50", "setting": "[3]", "result": 6.38, "unit": "µM"}, {"measurement": "Emax", "setting": "[3]", "result": 71, "unit": "%"}]}, {"compound": "COc1nc(-c2ccc(C(F)(F)F)cc2)ccc1CNc1ccc(SCC(=O)O)cc1", "note": "[Cpd 23, 2-(4-(((2-methoxy-6-(4-(trifluoromethyl)phenyl)pyridin-3-yl)methyl)amino)-phenylthio)ethanoic acid]", "values": [{"measurement": "EC50", "setting": "[1]", "result": 0.044, "unit": "µM"}, {"measurement": "Emax", "setting": "[1]; [4]", "result": 65.3, "unit": "%"}, {"measurement": "EC50", "setting": "[2]", "result": 2.84, "unit": "µM"}, {"measurement": "Emax", "setting": "[2]", "result": 75.6, "unit": "%"}, {"measurement": "EC50", "setting": "[3]", "result": 0.501, "unit": "µM"}, {"measurement": "Emax", "setting": "[3]", "result": 85.4, "unit": "%"}]}, {"compound": "COc1nc(-c2ccccc2)ccc1COc1ccc(OC(C)C(=O)O)cc1", "note": "(stereo not shown) [Cpd 3, 2-(4-((2-methoxy-6-phenylpyridin-3-yl)methoxy)phenoxy)propanoic acid]", "values": [{"measurement": "EC50", "setting": "[1]", "result": 0.432, "unit": "µM"}, {"measurement": "Emax", "setting": "[1]; [4]", "result": 68.7, "unit": "%"}, {"measurement": "EC50", "setting": "[2]", "result": 3.24, "unit": "µM"}, {"measurement": "Emax", "setting": "[2]", "result": 43.6, "unit": "%"}, {"measurement": "EC50", "setting": "[3]", "result": 1.2, "unit": "µM"}, {"measurement": "Emax", "setting": "[3]", "result": 114, "unit": "%"}]}, {"compound": "COc1nc(-c2ccc(C(F)(F)F)cc2)ccc1CNc1ccc(SC(C)(C)C(=O)O)cc1", "note": "[Cpd 22, 2-(4-(((2-methoxy-6-(4-(trifluoromethyl)phenyl)pyridin-3-yl)methyl)amino)-phenylthio)-2-methylpropanoic acid]", "values": [{"measurement": "Emax", "setting": "[1]; [4]", "result": 75.9, "unit": "%"}, {"measurement": "EC50", "setting": "[2]", "result": 1.05, "unit": "µM"}, {"measurement": "Emax", "setting": "[2]", "result": 88.9, "unit": "%"}, {"measurement": "EC50", "setting": "[3]", "result": 1.15, "unit": "µM"}, {"measurement": "Emax", "setting": "[3]", "result": 102, "unit": "%"}]}, {"compound": "COc1nc(OC)c(-c2ccccc2)cc1CNc1ccc(CCC(=O)O)cc1", "note": "[Cpd 48, 3-(4-(((2,6-dimethoxy-5-phenylpyridin-3-yl)methyl)amino)phenyl)propanoic acid]", "values": [{"measurement": "EC50", "setting": "[1]", "result": 26.4, "unit": "µM"}, {"measurement": "Emax", "setting": "[1]; [4]", "result": 35.9, "unit": "%"}, {"measurement": "EC50", "setting": "[2]", "result": 9.57, "unit": "µM"}, {"measurement": "Emax", "setting": "[2]", "result": 58.2, "unit": "%"}, {"measurement": "EC50", "setting": "[3]", "result": 16.7, "unit": "µM"}, {"measurement": "Emax", "setting": "[3]", "result": 68.1, "unit": "%"}]}, {"compound": "COc1nc(-c2ccccc2)ccc1CSc1ccc(CCC(=O)O)cc1", "note": "[Cpd 37, 3-(4-((2-methoxy-6-phenylpyridin-3-yl)methylthio)phenyl)propanoic acid]", "values": [{"measurement": "EC50", "setting": "[1]", "result": 9.95, "unit": "µM"}, {"measurement": "Emax", "setting": "[1]; [4]", "result": 65.5, "unit": "%"}, {"measurement": "EC50", "setting": "[2]", "result": 9.17, "unit": "µM"}, {"measurement": "Emax", "setting": "[2]", "result": 98.5, "unit": "%"}, {"measurement": "EC50", "setting": "[3]", "result": 12.7, "unit": "µM"}, {"measurement": "Emax", "setting": "[3]", "result": 94.7, "unit": "%"}]}, {"compound": "COc1nc(-c2ccccc2)ccc1CNc1cccc(OC(C)(C)C(=O)O)c1", "note": "[Cpd 13, 2-(3-(((2-methoxy-6-phenylpyridin-3-yl)methyl)amino)phenoxy)-2-methyl-propanoic acid]", "values": [{"measurement": "EC50", "setting": "[1]", "result": 1.43, "unit": "µM"}, {"measurement": "Emax", "setting": "[1]; [4]", "result": 61.9, "unit": "%"}, {"measurement": "EC50", "setting": "[2]", "result": 6.93, "unit": "µM"}, {"measurement": "Emax", "setting": "[2]", "result": 24.1, "unit": "%"}, {"measurement": "EC50", "setting": "[3]", "result": 3.22, "unit": "µM"}, {"measurement": "Emax", "setting": "[3]", "result": 96.1, "unit": "%"}]}, {"compound": "COc1nc(-c2ccc(-c3ccccc3)cc2)ccc1CNc1ccc(CCC(=O)O)cc1", "note": "[Cpd 39, 3-(4-(((2-methoxy-6-(parabiphenyl)pyridin-3-yl)methyl)amino)phenyl)-propanoic acid]", "values": [{"measurement": "EC50", "setting": "[1]", "result": 0.175, "unit": "µM"}, {"measurement": "Emax", "setting": "[1]; [4]", "result": 52.2, "unit": "%"}, {"measurement": "EC50", "setting": "[2]", "result": 1.94, "unit": "µM"}, {"measurement": "Emax", "setting": "[2]", "result": 100, "unit": "%"}, {"measurement": "EC50", "setting": "[3]", "result": 1.39, "unit": "µM"}, {"measurement": "Emax", "setting": "[3]", "result": 95.3, "unit": "%"}]}, {"compound": "COc1nc(-c2ccccc2)c(Br)cc1CNc1ccc(SCC(=O)O)cc1", "note": "[Cpd 29, 2-(4-(((2-methoxy-5-bromo-6-phenylpyridin-3-yl)methyl)amino)phenylthio)-ethanoic acid]", "values": [{"measurement": "EC50", "setting": "[1]", "result": 3.85, "unit": "µM"}, {"measurement": "Emax", "setting": "[1]; [4]", "result": 59.3, "unit": "%"}, {"measurement": "EC50", "setting": "[2]", "result": 8.43, "unit": "µM"}, {"measurement": "Emax", "setting": "[2]", "result": 57.7, "unit": "%"}, {"measurement": "EC50", "setting": "[3]", "result": 10.1, "unit": "µM"}, {"measurement": "Emax", "setting": "[3]", "result": 85.6, "unit": "%"}]}, {"compound": "COc1ncc(-c2ccccc2)cc1CNc1ccc(SCC(=O)O)cc1", "note": "[Cpd 26, 2-(4-(((2-methoxy-5-phenylpyridin-3-yl)methyl)amino)phenylthio)ethanoic acid]", "values": [{"measurement": "EC50", "setting": "[1]", "result": 20.9, "unit": "µM"}, {"measurement": "Emax", "setting": "[1]; [4]", "result": 67, "unit": "%"}, {"measurement": "EC50", "setting": "[2]", "result": 44.1, "unit": "µM"}, {"measurement": "Emax", "setting": "[2]", "result": 208, "unit": "%"}, {"measurement": "EC50", "setting": "[3]", "result": 31.1, "unit": "µM"}, {"measurement": "Emax", "setting": "[3]", "result": 138, "unit": "%"}]}, {"compound": "2-(4-(((2-methoxy-6-furylpyridin-3-yl)methyl)amino)phenylthio)ethanoic acid [Cpd 30]", "values": [{"measurement": "EC50", "setting": "[1]", "result": 12.1, "unit": "µM"}, {"measurement": "PPARα TOP % (maximum activation)", "setting": "[1]; [4]", "result": 38.70, "unit": "%"}]}]}
